For orientation: Emax means the greatest response seen or fitted, relative to the assay's reference. A word on the EC50: it is the midpoint of the concentration-response curve.

Here are results for 31 compounds from patent US20260200926A1, “TREM2 MODULATORS” (Muna Therapeutics ApS, priority 2022, published 2026).

The target in the experiment is T1, Human TREM2 (Homo sapiens, UniProt Q9NZC2).
T1 construct: expressed in transfected cells
The experiment is described as follows: Human TREM2 activity: cellular phosphorylation of Syk (AlphaLISA SureFire Ultra p-SYK) in HEK293/DAP12+TREM2 stable cell line. To be noted: for Emax: maximal response relative to reference agonist example 1B (remaining examples). Format: cell-based. The gist of the method:
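HEK293 cells stably co-expressing human TREM2 and DAP12 were seeded at 10,000 cells/well and used 20–24 h later. Compounds were tested at 8 concentrations (top 100 μM, 1:6 steps, 0.5% DMSO) for 30 min at 37 °C. Syk phosphorylation at Tyr525/526 was read in lysates by AlphaLISA SureFire Ultra.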
On the technique in general: Bead proximity is the source of the signal in Alpha formats.

[1] abbreviates: phospho-Syk AlphaLISA signal, HEK293/DAP12+TREM2 cells, concentration giving 50% of maximal response, read-out: EC50.

Like-named read-outs stand apart in the source and are kept apart here.

T1 sequence (Q9NZC2 19-230): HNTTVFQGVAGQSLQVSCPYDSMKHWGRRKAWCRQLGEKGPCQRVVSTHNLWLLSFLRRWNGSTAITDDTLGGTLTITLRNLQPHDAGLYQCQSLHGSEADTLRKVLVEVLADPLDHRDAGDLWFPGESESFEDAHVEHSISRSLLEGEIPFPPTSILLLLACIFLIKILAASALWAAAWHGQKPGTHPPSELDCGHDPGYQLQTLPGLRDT
T1 sequence (O43914 22-113 partner): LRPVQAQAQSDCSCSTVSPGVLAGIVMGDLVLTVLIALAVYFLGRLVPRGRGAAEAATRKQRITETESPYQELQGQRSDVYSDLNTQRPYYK

Consider `Cc1nc2c(-c3cc(F)c(F)cc3F)nc(N3CCO[C@H](c4cnn(C)c4)C3)nc2c(=O)n1C` (single isomer, unassigned) [Example 27A], for which the Emax (HEK293, read-out: Emax) was below 75%. In addition, under setting [1], the EC50 is 10 to 100 nM.
In the case of `CCN1CCN(c2nc(-c3ccc(Cl)cc3F)c3nc(C)n(C)c(=O)c3n2)CC1c1cnn(C)c1` (centres unmarked) [Example 30, 8-(4-chloro-2-fluorophenyl)-6-(4-ethyl-3-(1-methyl-1H-pyrazol-4-yl)piperazin-1-yl)-2,3-dimethylpyrimido[5,4-d]pyrimidin-4(3H)-one], the Emax (HEK293, read-out: Emax) was in the range of 75 to 110%. Moreover, the EC50 under setting [1] is 100 to 1000 nM.
Regarding `Cc1nc2c(-c3cc(C(F)(F)F)nn3C)nc(N3CCOC(c4cnn(C)c4)C3)nc2c(=O)n1C` (centres unmarked) [Example 99, 2,3-dimethyl-6-(2-(1-methyl-1H-pyrazol-4-yl)morpholino)-8-(1-methyl-3-(trifluoromethyl)-1H-pyrazol-5-yl)pyrimido[5,4-d]pyrimidin-4 (3H)-one], the maximal effect (Emax) (HEK293, read-out: Emax) was below 75%. The EC50 under setting [1] was in the range of 100 to 1000 nM.
On the same counts, the results for `Cn1c(C(F)(F)F)nc2c(-c3ccc(F)cc3F)nc([C@@H]3CCO[C@H](c4cnn(C5CC5)c4)C3)nc2c1=O` (single isomer, unassigned) [Example 196A] are 75 to 110% and 1 to 10 nM.
The like results for `Cc1nc2c(-c3ccc(Cl)cc3F)nc(N3C[C@@H](c4cnn(C5CC5)c4)O[C@@H](C)C3)nc2c(=O)n1C` (single isomer, unassigned) [Example 178A] were, in that order, 75 to 110% and 1 to 10 nM.
`Cc1nc2c(-c3ccc(Cl)cc3F)nc(N3CCOC(c4ccn(C)n4)C3)nc2c(=O)n1C` (centres unmarked) [Example 36, 8-(4-chloro-2-fluorophenyl)-2,3-dimethyl-6-(2-(1-methyl-1H-pyrazol-3-yl)morpholino)pyrimido[5,4-d]pyrimidin-4 (3H)-one]: the EC50 is 100 to 1000 nM and the Emax entry was “++ (75-110%)”.
For `Cc1cc([C@H]2CN(c3cc4c(=O)n(C)c(C)nc4c(-c4ccc(Cl)cc4F)n3)CCO2)ccn1` (single isomer, unassigned) [Example 135B], the Emax (HEK293, read-out: Emax) was in the range of 75 to 110%. Besides, the EC50 under setting [1] is 100 to 1000 nM.
On the same counts, the results for `Cc1nc2c(-c3ccc(Cl)cc3F)nc(N3CCOC(c4cn(C)cn4)C3)nc2c(=O)n1C` (centres unmarked) [Example 82, 8-(4-chloro-2-fluorophenyl)-2,3-dimethyl-6-(2-(1-methyl-1H-imidazol-4-yl)morpholino)pyrimido[5,4-d]pyrimidin-4(3H)-one] are 75 to 110% and above 1000 nM.
The like results for `Cc1nc2c(-c3cc(F)c(F)cc3F)nc(N3C[C@H](c4cnn(C)c4)OC(C)(C)C3)cc2c(=O)n1C` (single isomer, unassigned) [Example 150B] were, in that order, below 75% and above 1000 nM.
The like results for `Cc1nc2c(-c3ccc(Cl)cc3F)nc(N3C[C@@H](c4cnn(C)c4)OC(F)(F)C3)nc2c(=O)n1C` (single isomer, unassigned) [Example 149A] were, in that order, 75 to 110% and below 1 nM.
With `Cc1nc2c(-c3ccc(Cl)cc3F)cc(N3C[C@H](c4cnn(C)c4)OC(C)(C)C3)nc2c(=O)n1C` (single isomer, unassigned) [Example 142B], the Emax (HEK293, read-out: Emax) was in the range of 75 to 110%. Also, the EC50 under setting [1] lay in the range of 10 to 100 nM.
The like results for `Cc1nc2c(-c3ccc(Cl)cc3F)nc(N3CCOC(c4cn[nH]c4)C3)nc2c(=O)n1C` (centres unmarked) [Example 39, 6-(2-(1H-pyrazol-4-yl)morpholino)-8-(4-chloro-2-fluorophenyl)-2,3-dimethylpyrimido[5,4-d]pyrimidin-4 (3H)-one] were, in that order, below 75% and 10 to 100 nM.
With `Cc1nc2c(-c3ccc(Cl)cc3F)nc(N3CCO[C@@H](c4cnn(C5CC5)c4)C3)nc2c(=O)n1C` (single isomer, unassigned) [Example 26B], the maximal effect (Emax) (HEK293, read-out: Emax) lay in the range of 75 to 110%. Under setting [1], the EC50 is 1 to 10 nM.
On the same counts, the results for `Cc1nc2c(-c3ccc(Cl)cc3F)nc(N3CCOC(c4cnn(C5CN(C)C5)c4)C3)nc2c(=O)n1C` (centres unmarked) [Example 42, 8-(4-chloro-2-fluorophenyl)-2,3-dimethyl-6-(2-(1-(1-methylazetidin-3-yl)-1H-pyrazol-4-yl)morpholino)pyrimido[5,4-d]pyrimidin-4 (3H)-one] are below 75% and 10 to 100 nM.
On the same counts, the results for `Cc1nc2c(-c3ccc(Cl)cc3C#N)nc(N3CC(C)OC(c4cnn(C5CC5)c4)C3)cc2c(=O)n1C` (centres unmarked) [Example 198, 5-chloro-2-(6-(2-(1-cyclopropyl-1H-pyrazol-4-yl)-6-methylmorpholino)-2,3-dimethyl-4-oxo-3,4-dihydropyrido[3,4-d]pyrimidin-8-yl)benzonitrile] are below 75% and above 1000 nM.
As for `Cc1nc2c(-c3ccc(Cl)cc3F)cc(N3C[C@H](c4cnn(C)c4)OC(C)(C)C3)cc2c(=O)n1C` (single isomer, unassigned) [Example 117B], for the setting “HEK293, read-out: Emax”, the Emax was below 75%. Further, the EC50 under setting [1] fell in the range of 100 to 1000 nM.
On the same counts, the results for `Cc1nc2c(-c3ccc(Cl)cc3F)nc(N3CCO[C@@H](c4cnn(C(F)(F)F)c4)C3)nc2c(=O)n1C` (single isomer, unassigned) [Example 107B] are 75 to 110% and 100 to 1000 nM.
In the case of `Cc1nc2c(-c3ccc(Cl)cc3F)nc(N3CCc4cncnc4CC3)nc2c(=O)n1C` [Example 83, 8-(4-chloro-2-fluorophenyl)-2,3-dimethyl-6-(5,6,8,9-tetrahydro-7H-pyrimido[4,5-d]azepin-7-yl)pyrimido[5,4-d]pyrimidin-4(3H)-one], the maximal effect (Emax) (HEK293, read-out: Emax) is below 75%. Under setting [1], the EC50 was above 1000 nM.
The like results for `Cc1nc2c(-c3ccc(Cl)cc3F)nc(N3CCO[C@H](c4cnn(C5CC5)c4)C3)cc2c(=O)n1C` (single isomer, unassigned) [Example 131A] were, in that order, 75 to 110% and 1 to 10 nM.
In the case of `COCCn1cc(C2CN(c3nc(-c4ccc(Cl)cc4F)c4nc(C)n(C)c(=O)c4n3)CCO2)cn1` (centres unmarked) [Example 69, 8-(4-chloro-2-fluorophenyl)-6-(2-(1-(2-methoxyethyl)-1H-pyrazol-4-yl)morpholino)-2,3-dimethylpyrimido[5,4-d]pyrimidin-4 (3H)-one], the maximum response (Emax) (HEK293, read-out: Emax) was below 75%. In addition, the EC50 under setting [1] fell in the range of 10 to 100 nM.
On the same counts, the results for `Cc1nc2c(-c3ccc(Cl)cc3F)cc(N3CCOC(c4cnn(C)c4)C3)cc2c(=O)n1C` (centres unmarked) [Example 106, 8-(4-chloro-2-fluorophenyl)-2,3-dimethyl-6-(2-(1-methyl-1H-pyrazol-4-yl)morpholino)quinazolin-4 (3H)-one] are below 75% and 100 to 1000 nM.
On the same counts, the results for `Cc1cc([C@@H]2CN(c3cc4c(=O)n(C)c(C)nc4c(-c4ccc(F)cc4F)n3)CC(F)(F)O2)ccn1` (single isomer, unassigned) [Example 171A] are above 110% and 1 to 10 nM.
Turning to `Cc1nc2c(-c3ccc(Cl)cc3F)nc(N3CC(c4cnn(C)c4)OC(C)(C)C3)nc2c(=O)n1C` (centres unmarked) [Example 62, 8-(4-chloro-2-fluorophenyl)-6-(2,2-dimethyl-6-(1-methyl-1H-pyrazol-4-yl)morpholino)-2,3-dimethylpyrimido[5,4-d]pyrimidin-4 (3H)-one], the Emax (HEK293, read-out: Emax) is below 75%. In addition, the EC50 under setting [1] lay in the range of 1 to 10 nM.
Consider `Cc1nc2c(-c3ccc(Cl)cc3F)nc(N3C[C@H](c4cnn(C)c4)OC4(CC4)C3)cc2c(=O)n1C` (single isomer, unassigned) [Example 144B], for which the maximal effect (Emax) (HEK293, read-out: Emax) is below 75%. Moreover, under setting [1], the EC50 lay within 10 to 100 nM.
The like results for `Cc1cnccc1OC1CCN(c2nc(-c3ccc(Cl)cc3F)c3nc(C)n(C)c(=O)c3n2)CC1` [Example 84, 8-(4-chloro-2-fluorophenyl)-2,3-dimethyl-6-(4-((3-methylpyridin-4-yl)oxy)piperidin-1-yl)pyrimido[5,4-d]pyrimidin-4(3H)-one] were, in that order, below 75% and 100 to 1000 nM.
The like results for `Cc1nc2c(-c3ccc(Cl)cc3F)nc(C3CCOC(c4cnn(C)c4)C3)nc2c(=O)n1C` (centres unmarked) [Example 17, 8-(4-chloro-2-fluorophenyl)-2,3-dimethyl-6-(2-(1-methyl-1H-pyrazol-4-yl)tetrahydro-2H-pyran-4-yl)pyrimido[5,4-d]pyrimidin-4 (3H)-one] were, in that order, 75 to 110% and 100 to 1000 nM.
The like results for `Cc1nc2c(-c3ccc(Cl)cc3F)nc(N3CC[C@H](Oc4cnn(C)c4)C3)nc2c(=O)n1C` [Example 74, (S)-8-(4-chloro-2-fluorophenyl)-2,3-dimethyl-6-(3-((1-methyl-1H-pyrazol-4-yl)oxy)pyrrolidin-1-yl)pyrimido[5,4-d]pyrimidin-4 (3H)-one] were, in that order, below 75% and above 1000 nM.
Turning to `Cc1nc2c(-c3ccc(C(F)F)nc3)nc(N3C[C@@H](C)O[C@@H](c4cnn(C5CC5)c4)C3)cc2c(=O)n1C` (single isomer, unassigned) [Example 194B], the Emax (HEK293, read-out: Emax) is below 75%. Moreover, under setting [1], the EC50 lay in the range of 100 to 1000 nM.
Regarding `Cc1nc2c(-c3ccc(Cl)cc3F)nc(N3CC(OCc4cnn(C)c4)C3)nc2c(=O)n1C` [Example 18, 8-(4-chloro-2-fluorophenyl)-2,3-dimethyl-6-(3-((1-methyl-1H-pyrazol-4-yl)methoxy)azetidin-1-yl)pyrimido[5,4-d]pyrimidin-4 (3H)-one], for the setting “HEK293, read-out: Emax”, the maximal effect (Emax) is below 75%. Moreover, the EC50 under setting [1] is above 1000 nM.
With `Cc1nc2c(-c3cc(F)c(F)cc3F)nc(N3CCOC(c4cnn(C)c4)C3)nc2c(=O)n1C` (centres unmarked) [Example 7, 2,3-dimethyl-6-(2-(1-methyl-1H-pyrazol-4-yl)morpholino)-8-(2,4,5-trifluorophenyl)pyrimido[5,4-d]pyrimidin-4(3H)-one], under “HEK293, read-out: Emax”, the maximal effect (Emax) is below 75%. Besides, the EC50 under setting [1] was in the range of 100 to 1000 nM.
On to `Cc1nc2c(-c3ccc(C(F)(F)F)cc3F)nc(N3C[C@H](c4cnn(C)c4)OC4(CCC4)C3)cc2c(=O)n1C` (single isomer, unassigned) [Example 143B], for which the Emax (HEK293, read-out: Emax) is below 75%. Also, the concentration for a half-maximal effect (EC50) under setting [1] lay within 100 to 1000 nM.
